Among the test systems are HCT-116; MDA-MB-231; SW-620; HT-29; SK-OV-3; EKVX; UACC-257; OVCAR-3; NCI/ADR-RES; SN12C; MDA-MB-435; A549; UACC-62; SR; HCT-15; MCF7; ACHN; Malme-3M; LOX IMVI; HL-60.
Holding throughout (assay): inhibition of tumour cell growth, NCI panel, 48 h

The results in this text go back to ChEMBL document CHEMBL1201862, “PubChem BioAssay data set” (2004).

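The compound was tested at five concentrations on cells cultured in 96-well plates, with a 48-hour exposure period. At the GI50, growth is halved.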 Active and inactive are the calls of the source. No stated cut-off is given here; in the data, active = GI50 up to about 1.1 µM and inactive = higher.

With `COc1ccc2c3c1OC1C(=O)C=CC4(CC2)N(C)CCC314` (centres undefined), the GI50 in the assay with HCT-116 was 14 µM (inactive); in the assay on MDA-MB-231 it was 41.2 µM (inactive); in the assay with SW-620 it was 14.2 µM (inactive); in the assay on HT-29 it was 28.6 µM (inactive); with SK-OV-3 it was 36.4 µM (inactive); in the assay with EKVX, 19.6 µM (inactive). Also, the GI50 with UACC-257 is 28.6 µM (inactive); with OVCAR-3, 19.4 µM (inactive); with NCI/ADR-RES it was 22.9 µM (inactive); in the assay on SN12C it was 21.4 µM (inactive); in the assay on MDA-MB-435, 12.2 µM (inactive); in the assay with A549 it was 22.8 µM (inactive). In addition, the GI50 in the assay on UACC-62 was > 10 µM (inactive); with SR, 7.21 µM (inactive); in the assay on HCT-15, 18.9 µM; with MCF7, 20.2 µM (inactive); with ACHN, 18.9 µM (inactive); with Malme-3M, 35.1 µM (inactive). Further, in the assay on LOX IMVI, the GI50 is 11.4 µM (inactive).

Regarding `CC(=O)O/N=C1\C=Cc2c(no[n+]2[O-])C1=O`, the GI50 in the assay on HCT-116 is 14.3 µM (inactive); in the assay on MDA-MB-231 it was 18.9 µM (inactive); in the assay on SW-620, 3.37 µM (inactive); in the assay with HT-29, 17.5 µM (inactive); in the assay on EKVX it was 17.3 µM (inactive); with UACC-257, 18.2 µM (inactive). The GI50 is 16.2 µM (inactive) in the assay on OVCAR-3; 27.6 µM (inactive) in the assay on NCI/ADR-RES; 18.5 µM (inactive) in the assay with SN12C; 20.6 µM (inactive) in the assay on MDA-MB-435; 16.1 µM (inactive) with A549; 16 µM (inactive) in the assay with UACC-62. The GI50 with SR was 15.8 µM (inactive); in the assay on HCT-15 it was 19.8 µM; in the assay with MCF7, 22.5 µM (inactive); in the assay with ACHN it was 17.1 µM (inactive); with Malme-3M, 14.7 µM (inactive); in the assay with LOX IMVI, 18 µM (inactive).

Take `Cc1c(C(=O)O)c2cc3ccccc3cc2c(=O)n1C`: the GI50 with MDA-MB-231, in the assay on SW-620, in the assay with HT-29, with SK-OV-3, with EKVX and in the assay on UACC-257 was > 10 µM (inactive) each time. Besides, the GI50 with OVCAR-3, with NCI/ADR-RES, with SN12C, in the assay with MDA-MB-435, in the assay on A549 and in the assay on UACC-62 was > 10 µM (inactive) in each case. The GI50 with SR was > 10 µM (inactive); in the assay on HCT-15 it was greater than 10 µM; in the assay with HL-60, > 10 µM (inactive); with MCF7, > 10 µM (inactive); in the assay with ACHN, > 10 µM (inactive); in the assay on Malme-3M, > 10 µM (inactive). For the same compound, in the assay with LOX IMVI, the GI50 was > 10 µM (inactive).

`CC(=O)O[C@H]1C[C@H]2[C@@H]([C@H](OC(C)=O)C[C@@H]3CC4(CC[C@@]32C)OOC2(CCCCC2)OO4)[C@@H]2CC[C@H]([C@H](C)CCC(=O)O)[C@@]12C`: the GI50 is 5.81 µM (inactive) in the assay with HCT-116; 14.1 µM (inactive) in the assay on MDA-MB-231; 10.2 µM (inactive) in the assay on SW-620; 11.5 µM (inactive) in the assay with HT-29; 13.7 µM (inactive) in the assay with SK-OV-3; 1.95 µM (inactive) with EKVX. The GI50 with UACC-257 was 11.4 µM (inactive); in the assay with OVCAR-3 it was 13.9 µM (inactive); with NCI/ADR-RES, 4.88 µM (inactive); with SN12C, 6.81 µM (inactive); with MDA-MB-435, 5.75 µM (inactive); with A549 it was 2.66 µM (inactive). In addition, the GI50 was 2.44 µM (inactive) with SR; 4.39 µM with HCT-15; 4.15 µM (inactive) in the assay with HL-60; 4.65 µM (inactive) with MCF7; 7.24 µM (inactive) with ACHN; 16.4 µM (inactive) with Malme-3M. In addition, the GI50 in the assay with LOX IMVI was 3.48 µM (inactive).

Regarding `NC(Cc1ccccc1)C(=O)OCN1C(=O)C2C3C=CC(C2C1=O)C1C(=O)N(COC(=O)C(N)Cc2ccccc2)C(=O)C31` (centres undefined), the GI50 was 42.5 µM (inactive) in the assay on HCT-116; 78 µM (inactive) in the assay with MDA-MB-231; 28.8 µM (inactive) with SW-620; 18.4 µM (inactive) in the assay with HT-29; > 100 µM (inactive) with EKVX; 75.2 µM (inactive) in the assay with UACC-257. The GI50 in the assay with OVCAR-3 was > 100 µM (inactive); with NCI/ADR-RES it was > 100 µM (inactive); in the assay with SN12C, > 100 µM (inactive); in the assay with MDA-MB-435, > 100 µM (inactive); in the assay on A549 it was > 100 µM (inactive); in the assay on UACC-62 it was 38.8 µM (inactive). The GI50 was 24.4 µM (inactive) in the assay on SR; 27.4 µM with HCT-15; 17.4 µM (inactive) in the assay on HL-60; 17.5 µM (inactive) in the assay on MCF7; > 100 µM (inactive) in the assay on ACHN; 17.2 µM (inactive) with Malme-3M. In the assay on LOX IMVI, the GI50 is 22 µM (inactive).

As for `CCCCCCCC/C=C(\Br)C(O)C(Br)Br` (centres undefined), the GI50 with HCT-116 was 27.2 µM (inactive); with MDA-MB-231, 36.8 µM (inactive); in the assay on SW-620, 16.3 µM (inactive); in the assay on SK-OV-3, 26.6 µM (inactive); with EKVX, 28.2 µM (inactive); with UACC-257 it was 28 µM (inactive). Further, the GI50 in the assay on OVCAR-3 is 17.4 µM (inactive); with NCI/ADR-RES it was 26.2 µM (inactive); with SN12C it was 17.3 µM (inactive); in the assay on MDA-MB-435, 21.5 µM (inactive); in the assay on A549, 31.4 µM (inactive); in the assay on UACC-62, 19.3 µM (inactive). Also, the GI50 with SR is 40.8 µM (inactive); in the assay on HCT-15, 20.6 µM; in the assay on MCF7 it was 25.5 µM (inactive); with ACHN, 22.3 µM (inactive); in the assay with Malme-3M it was 21.1 µM (inactive); in the assay on LOX IMVI, 19.9 µM (inactive).

`CC(=O)Oc1c2c(c3n(c1=O)CCCC3)C(=O)N(c1ccccc1)C2=O`: the GI50 is > 100 µM (inactive) in the assay with HCT-116; > 100 µM (inactive) with MDA-MB-231; > 100 µM (inactive) in the assay on SW-620; 94.2 µM (inactive) in the assay on HT-29; > 100 µM (inactive) in the assay on SK-OV-3; 94 µM (inactive) with EKVX. Also, the GI50 in the assay with OVCAR-3 is 86.7 µM (inactive); in the assay with NCI/ADR-RES, 65.3 µM (inactive); in the assay on SN12C, 83.2 µM (inactive); in the assay on MDA-MB-435, 46.9 µM (inactive); in the assay on A549 it was > 100 µM (inactive); in the assay with UACC-62 it was 63.7 µM (inactive). The GI50 is > 100 µM (inactive) in the assay with SR; 59 µM in the assay on HCT-15; > 100 µM (inactive) with HL-60; > 100 µM (inactive) with MCF7; 51.4 µM (inactive) in the assay with ACHN; > 100 µM (inactive) in the assay with Malme-3M. Further, the GI50 in the assay with LOX IMVI is > 100 µM (inactive).

With `CN(C)Cc1cc(C(=O)/C=C/c2ccc(Cl)cc2)cc(CN(C)C)c1O`, the GI50 in the assay with HCT-116 was 12.9 µM (inactive); in the assay with MDA-MB-231 it was 11.4 µM (inactive); with SW-620, 6.65 µM (inactive); in the assay with HT-29 it was 5.6 µM (inactive); in the assay on EKVX it was 12.8 µM (inactive); in the assay with UACC-257, 15.6 µM (inactive). Further, the GI50 with OVCAR-3 was 3.06 µM (inactive); in the assay with NCI/ADR-RES, 15.8 µM (inactive); with SN12C, 10.8 µM (inactive); with MDA-MB-435, 13.7 µM (inactive); in the assay with A549 it was 8.73 µM (inactive); with SR, 11.1 µM (inactive). In addition, the GI50 with HCT-15 is 15.9 µM; with HL-60, 2.86 µM (inactive); in the assay on MCF7, 14.4 µM (inactive); in the assay with ACHN, 4.04 µM (inactive); with Malme-3M, 11.7 µM (inactive); in the assay on LOX IMVI, 4.43 µM (inactive).
